Experiments:
MDA-MB-231 = assay: Inhibition of EGF-induced invasion of human MDA-MB-231 cells by MTT assay; assay type: functional, cell-based
RAW264.7 = assay: Antiinflammatory activity in mouse RAW264.7 cells assessed as inhibition of LPS-induced nitric oxide production preincubated for 30 mins followed by LPS challenge measured after 24 hrs by Griess assay; assay type: functional, cell-based

Row | IC50 (MDA-MB-231) | IC50 (RAW264.7) | Compound
1 | 24.8 µM | > 100 µM | CC1(C)[C@@H](O[C@@H]2O[C@H](CO)[C@@H](O)[C@H](O)[C@H]2O)CC[C@@]2(C)[C@@H]3CC[C@](C)([C@@H](O)CO)C=C3CC[C@H]12
2 | > 25 µM | > 100 µM | CC1(C)[C@H]2CCC3=C(CC[C@](C)([C@@H](O)CO)C3)[C@]2(C)CC[C@H]1O[C@@H]1O[C@H](CO)[C@@H](O)[C@H](O)[C@H]1O
3 | > 25 µM | > 100 µM | CC1(C)[C@H]2CCC3=C[C@@](C)(C=O)CC[C@H]3[C@]2(C)CC[C@H]1O[C@@H]1O[C@H](CO)[C@@H](O)[C@H](O)[C@H]1O
4 | 0.27 µM | > 100 µM | CC1(C)[C@H]2CCC3=C[C@@](C)([C@H](O)CO)CC[C@H]3[C@]2(C)CC[C@H]1O[C@@H]1O[C@H](CO)[C@@H](O)[C@H](O)[C@H]1O
5 | 26.8 µM | > 100 µM | C=C1C[C@]23CC[C@@H]4[C@](C)(CO[C@@H]5O[C@H](CO)[C@@H](O)[C@H](O)[C@H]5O)CC(=O)C[C@@]4(C)[C@@H]2CC[C@@]1(O)C3
6 | > 25 µM | > 100 µM | CC1(C)[C@H]2CCC3=C[C@@](C)([C@@H](O)CO)CC[C@H]3[C@]2(C)CC[C@H]1O[C@@H]1O[C@H](CO)[C@@H](O)[C@H](O)[C@H]1O
7 | > 25 µM |  | CC1(C)[C@H](O)CC[C@@]2(C)[C@@H]3CC[C@](C)([C@@H](O)CO)C=C3CC[C@H]12 [DARUTIGENOL]

Source: ChEMBL document CHEMBL4007496, “Isolation and characterization of diterpene glycosides from Siegesbeckia pubescens” (Bioorg Med Chem Lett, 2017)
